The subject of series [1] is RAW 264.7 murine macrophages. The series is described as follows: Immunogenicity assay: IL-6 secretion (ELISA). The series is classed as cell-based. The conditions noted are these: 10 μM peptide or LPS 1 μg/ml, 24 h. How it is done:
(§1) FIG. 4 Lack of toxicity and immunogenicity of hAP10 and hAP10DR. (A) The indicated cells were exposed to increasing concentrations of hAP10 or hAP10DR for 20 h. Viability was then assessed by an MTT assay. Data are means±s.e.m. (n=3). (B) Necrotic cell death was monitored by lactate dehydrogenase (LDH) release from cells into the culture medium. The obtained values were normalized to those of the maximum LDH released (completely lysed) control. Data are means±s.e.m. (n=3). […] Mice red blood cells were incubated with 30 μM of hAP10 or hAP10DR. Released hemoglobin was detected by densitometry at 540 nm. Hemoglobin release by cells treated with 1% Triton X-100 was used as 100% lysis control. (D) Levels of IL-6 secretion from RAW 264.7 cells exposed to 10 μM of hAP10 or hAP10DR or LPS (1 μg/ml) for 24 h. Data are means±s.e.m. (n=3).
RAW 264.7 murine macrophages were seeded (1×10^4 cells/cm^2) in a 24-well plate and allowed to grow for 24 h. Then, cells were left untreated or exposed to the hAP10 or hAP10DR peptides (10 μM) or to LPS (E. Coli O111:b4, 1 μg/ml) as a positive control for 24 h. Levels of IL-6 in the supernatants were analyzed using an Mouse IL-6 Quantikine ELISA Kit (R&D system).

Series [2] relates to various cell lines. The class given is cell-based. The conditions noted are these: data not shown. How it is done: as §1
(§2) Cells survival was assessed with the CellTiter 96® Aqueous One Solution Cell Proliferation Assay kit (Promega, Madison, Wis.). Necrotic plasma membrane permeabilization was assessed by lactate dehydrogenase (LDH) leakage in the culture medium with the CytoTox 96® Non-Radioactive Cytotoxicity Assay kit (Promega, Madison, Wis.).

Series [3] concerns non-malignant (CD3+CD4+TCR-Vβ−) CD4+ T-cells. The series is classed as cell-based, human. How it is done: (§3) FIG. 7 RT33 and RT33DR specifically induce primary Sézary cells death. Sézary patients' PBMC were incubated with increasing concentrations of the indicated peptides for 4 h at 37° C. Cells were then analyzed by flow cytometry following labeling with anti-TCRVβ-FITC, -CD4-PE, -CD3-PE-Cy7 mAbs and 7-AAD. Data are shown as the means±s.e.m. of the percentage of 7-AAD+apoptotic cells within the following populations: malignant (CD3^+CD4^+TCR-V β^+) and non-malignant (CD3^+CD4^+TCR-Vβ^−) CD4+T-cells and non T-cells (CD3^−), derived from three different patients.
(§4) PBMC exposed or not to RT33 or RT33DR were processed for flow cytometry to assess cell death. Cells were labelled with a mix of anti-TCR-Vβ-FITC, -CD3-PE and -CD4-PECy7 mAbs (Beckman Coulter). Detection of apoptotic cells was performed using 7AAD (BD Biosciences). Cells were analyzed on a CytoFlex cytometer (Beckman Coulter) and data treated with FlowJo software.

The test system of the next series is non T-cells (CD3−). The series is classed as cell-based, human. How it is done: as §3, §4
Series [4] relates to HUT78 Sézary cell line xenograft tumors. The series is described as follows: Xenograft tumor model of Sézary syndrome. The class given is in vivo. The conditions noted are these: systemic administration, single agent. How it is done: FIG. 8 RT33 and RT33DR inhibit tumor growth in vivo in a mouse model for the Sézary syndrome. (A) Mice were engrafted subcutaneously with HUT78 Sézary cell line. Animals with preexisting tumors were treated daily with i.p. injections of RT33 or RT33DRM in normal saline (5 mg/kg) or normal saline as control. Tumors were calipered throughout the study and data were plotted as means±s.e.m. (n=7 mice per group). p<0.005 relative to control. Subsequently, tumors were excised, stripped of non-tumor tissue and tumors volumes were calculated. (B) Representative pictures of H&E staining of tumors treated with RT33, RT33DRM, or normal saline. The scale bar represents 500 μm.
Animal experiments were approved by The University Board Ethics Committee for Experimental Animal Studies (#2303.01). Xenograft tumors were obtained by subcutaneous injection of 10^6 HUT78 cells in the right flank of 8-week-old female NOD-SCID-gamma (NSG) mice, bred and housed under pathogen-free conditions at our animal facility (IUH, Saint Louis Hospital, Paris, France). Treatment started after randomization when tumors were visible and consisted of daily intraperitoneal (i.p.) injection of normal saline or RT33 or RT33DR in normal saline (n=5 per group). Tumor volume was measured every other day and calculated as: long axis X short axis^2 ×0.5. […]

For the next series, the system named is HUT78. In words: Cell viability (MTT) after RT33 / RT33DR. The class given is cell-based. The note with it: 50 μM zVAD-fmk, 20 h. As for the experimental part: (§5) FIG. 6 RT33 and RT33DR induces cancer cells, but not normal cells, death. (A) Amino-acid sequence of RT33 and RT3DR. hAP10 and hAP10DR sequences are in bold. (B) The indicated cells were exposed to increasing concentrations of RT33 or RT3DR for 20 h. Viability was then assessed by an MTT assay. Data are means±s.e.m. (n=3). (C) HUT78 cells were exposed to increasing concentrations of RT33 or RT3DR for 20 h in the presence and absence of 50 μM zVAD-fmk or 50 μM Necrostatin-1 (Nec-1). Viability was then assessed by an MTT assay. Data are means±s.e.m. (n=3). (D) HUT78 cells were exposed to 20 μM of RT33 or RT33DR for 3 h. Necrotic cell death was monitored by lactate dehydrogenase (LDH) as in FIG. 4 (B). Data are means±s.e.m. (n=3). (E) Ultrastructural analysis of HUT78 cells treated with 15 μM of hAP10 or hAP10DR for 1 h. (F) Structural prediction of RT33 and RT33DR. The segments corresponding to the hAP10 and hAP10DR moieties are in light grey. (G) Cancerous C8161 cells or non-cancerous MRC-5 cells were exposed to FITC-labelled RT33 or RT33DR for 1 h. Cels were then examined by fluorescence microscopy.
as §2

In a further series the test system is MRC-5. In words: Cell viability (MTT) after RT33 / RT33DR. The class given is cell-based. The note with it: increasing concentrations, 20 h. How it is done: as §5, §2
Another series deals with HaCat. The series is described as follows: Cell viability (MTT) after RT33 / RT33DR. The class given is cell-based. The conditions noted are these: increasing concentrations, 20 h. As for the experimental part: as §5, §2
The subject of series [5] is various cell lines. In words: Lactate dehydrogenase (LDH) release assay of the shuttle peptides. The series is classed as cell-based. As for the experimental part:
as §1, §2

A further series deals with Mice red blood cells. The series is described as follows: Hemolysis assay. The conditions noted are these: 30 μM, 37° C., 1 h; 1% Triton X-100 = 100% lysis. The class given is cell-based. How it is done: as §1
Mice blood was centrifuged at 2000 rpm for 10 min. Red blood cell pellets were washed five times with PBS and resuspended in normal saline. For each assay, 1×10^7 red blood cells were incubated with or without peptide (30 μM) in normal saline at 37° C. for 1 h. The samples were then centrifuged and the absorbance of the supernatant was measured at 540 nm. To determine the percentage of lysis, absorbance readings were normalized to lysis with 1% Triton X-100.

The subject of a further series is U2OS cells. In words: Live cell fluorescence microscopy of FITC-labelled peptides. The series is classed as cell-based. The note with it: 5 μM FITC-labelled peptide, 1 h. How it is done: FIG. 2 Cellular uptake of hAP10 and hAP10DR. (A) HUT78 cells were incubated with 5 μM of FITC-labelled hAP10 and hAP10DR or penetratin and TAT as controls for 1 h in complete medium. Cells were then washed with PBS, incubated in trypsin-EDTA solution (0.01% trypsin) at 37° C. for 10 min, resuspended in PBS and subjected to flow cytometry (right). Left: Bar diagram representing the uptake of the FITC-labelled peptides as mean cellular fluorescence from the flow cytometry analysis of live cells positive for FITC. Data are means±s.e.m. (n=3). (B) Fluorescence quantification of FITC-labelled hAP10 and hAP10DR uptaken in human B lymphocytes. Cells were incubated with 5 μM of FITC-labelled hAP10 and hAP10DR or penetratin and TAT as controls for 1 h in complete medium, washed with PBS and the fluorescence of the cell lysis measured as described in Material and Methods. Data are means±s.e.m. (n=3). (C) Intracellular distribution of FITC-labelled hAP10 and hAP10DR in U2OS cells. U2OS cells grown on coverslips were incubated with 5 μM of FITC-labelled hAP10 and hAP10DR or penetratin and TAT as controls for 1 h in complete medium, washed trice with PBS and live cells were imaged using fluorescence microscopy. […] Following incubation, the cells were washed three times in PBS and imaged using a Zeiss Axiovert 200 M inverted fluorescence microscope.

Where no end group is shown, it is not given here.

As to “lipopolysaccharide [LPS, reference compound]”, the “secreted IL-6” value in series [1] is listed as “elicited a potent cytokine response”.

Regarding “AAC-11 specific portion: the AAC-11 specific portion (residues 377-399) alone, without shuttle (LQYFARGLQVYIRQLRLALQGKT; UniProt Q9BZZ5 377-399, looked up, fragment)”, the “cell viability, AAC-11 portion without shuttle” value with various cell lines [2] is on record as “nor the AAC-11 specific portion alone (not shown) decreased cell viability”.

In the case of “RSRSRDRRRKLQYFARGLQVYIRQLRLALQGKT [RT33]”, in [3], the “cell viability / cell death of non-tumoral CD4+ T-cells” value is listed as “neither peptide decreased cell viability”. Also, the “cell viability / cell death of non-T cell population” value in the series with non T-cells (CD3−) is reported as “neither peptide decreased cell viability”. The tolerability in vivo entry in series [4] is on record as “well tolerated in vivo”. Besides, the “cytotoxicity in presence of pan-caspase inhibitor zVAD-fmk” value with HUT78 is recorded as “did not block”. The “cell viability of normal cells” value in the series on MRC-5 and in the series on HaCat was “sparing the normal cells tested” throughout.

On to RSRSRRRRRK [hAP10DR, RSRSRRRRRK], for which the “LDH activity release in the culture medium (membrane disturbance)” value in the series on various cell lines [5] was “did not induce membrane disturbance”. Further, the “cell viability / cell death of non-tumoral CD4+ T-cells” value in [3] is on record as “did not induce cell death”. For the same substance, the “cell viability / cell death of non-T cell population” value in the series with non T-cells (CD3−) is reported as “did not induce cell death”. In addition, the hemolytic activity entry with Mice red blood cells is “neither hAP10 nor hAP10DR exhibited hemolytic activity”. Further, the “secreted IL-6” value in [1] is listed as “no significant IL-6 release was detected”.

RSRSRDRRRK [hAP10, RSRSRDRRRK]: in the series with various cell lines [5], the “LDH activity release in the culture medium (membrane disturbance)” value was “did not induce membrane disturbance”. Also, in [3], the “cell viability / cell death of non-tumoral CD4+ T-cells” value is recorded as “did not induce cell death”. In the series with non T-cells (CD3−), the “cell viability / cell death of non-T cell population” value was “did not induce cell death”. The hemolytic activity entry with Mice red blood cells is on record as “neither hAP10 nor hAP10DR exhibited hemolytic activity”. Moreover, in series [1], the “secreted IL-6” value was “no significant IL-6 release was detected”.

Regarding “RSRSRRRRRKLQYFARGLQVYIRQLRLALQGKT [RT33DR]”, in series [3], the “cell viability / cell death of non-tumoral CD4+ T-cells” value is recorded as “neither peptide decreased cell viability”. In the series on non T-cells (CD3−), the “cell viability / cell death of non-T cell population” value is reported as “neither peptide decreased cell viability”. Further, the tolerability in vivo entry in series [4] is on record as “well tolerated in vivo”. For the same substance, the “cytotoxicity in presence of pan-caspase inhibitor zVAD-fmk” value with HUT78 is on record as “did not block”. Besides, the “cell viability of normal cells” value with MRC-5 and with HaCat was “sparing the normal cells tested” each time.

On to TAT, for which the “cellular distribution of fluorescence” value in the series with U2OS cells was “both a diffuse and punctuate fluorescence distribution”.
